From patent publication EP1057825A1, “ISOFLAVANE DERIVATIVES AND IMMUNOPOTENTIATING COMPOSITIONS CONTAINING THE SAME” (SHIONOGI & CO., LTD., priority 1998, dated 1999) come the findings set out here.

The test system of this assay is mouse bone marrow cells. Kind of assay: Metabolism promoting action on mouse bone marrow cells (mitochondrial metabolism activity, MTT reduction method). Type of assay: cell-based, BALB/c mouse. The settings on record: Mus musculus, Bone marrow cell, 120 h, 5 days, magnitude of metabolism, no test compound = one; for activity at 0.39 µg/mL: Test compound concentration 0.39 µg/ml; for activity at 0.78 µg/mL: Test compound concentration 0.78 µg/ml; for activity at 1.56 µg/mL: Test compound concentration 1.56 µg/ml; for activity at 3.13 µg/mL: Test compound concentration 3.13 µg/ml; for activity at 6.25 µg/mL: Test compound concentration 6.25 µg/ml; for activity at 12.5 µg/mL: Test compound concentration 12.5 µg/ml. An excerpt:
The presence of an immunoactivating action can be determined if the magnitude of metabolism exceeds one, where the cellular metabolism of cells not having test compounds added thereto is defined as one.
A general note: Tetrazolium dyes change colour on reduction, which living cells bring about.

Take `CCCCCCOc1cc2c(c(OC)c1CCC(C)C)CC(c1ccc(O)c(CCC(C)C)c1OCCCCCC)CO2` (stereo not drawn) [A-14]: the activity at 0.39 µg/mL was 134%, the activity at 0.78 µg/mL is 149%, the activity at 1.56 µg/mL was found to be 166% and the activity at 3.13 µg/mL came to 184%. For the same compound, the activity at 6.25 µg/mL stood at 199% and the activity at 12.5 µg/mL is 209%.

As to `CCCCCCCCCOc1ccc(C2COc3cc(O)c(CCC(C)C)c(OC)c3C2)c(OCCCCCCCCC)c1CCC(C)C` (stereo not drawn) [A-17], the activity at 0.39 µg/mL worked out at 116%, the activity at 0.78 µg/mL was 117%, the activity at 1.56 µg/mL stood at 126% and the activity at 3.13 µg/mL is 164%. Besides, the activity at 6.25 µg/mL was 177% and the activity at 12.5 µg/mL was determined as 156%.

Take `CCCCCCCCCOc1cc2c(c(OC)c1CCC(C)C)CC(c1ccc(O)c(CCC(C)C)c1OCCCCCCCCC)CO2` (stereo not drawn) [A-18]: the activity at 0.39 µg/mL turned out to be 103%, the activity at 0.78 µg/mL stood at 102%, the activity at 1.56 µg/mL amounted to 109% and the activity at 3.13 µg/mL worked out at 115%. The activity at 6.25 µg/mL amounted to 119% and the activity at 12.5 µg/mL is 114%.

Regarding `COc1c2c(cc(OC(C)C)c1CCC(C)C)OCC(c1ccc(O)c(CCC(C)C)c1O)C2` (stereo not drawn) [A-19], the activity at 1.56 µg/mL stood at 120%, the activity at 3.13 µg/mL was determined as 128%, the activity at 6.25 µg/mL was 126% and the activity at 12.5 µg/mL amounted to 53%.

Regarding `COc1c(CCC(C)C)c(O)cc2c1CC(c1ccc(OC(C)C)c(CCC(C)C)c1OC(C)C)CO2` (stereo not drawn) [A-20], the activity at 1.56 µg/mL came to 135%, the activity at 3.13 µg/mL was 134%, the activity at 6.25 µg/mL came to 116% and the activity at 12.5 µg/mL was 94%.

With `COc1c2c(cc(OC(C)C)c1CCC(C)C)OCC(c1ccc(O)c(CCC(C)C)c1OC(C)C)C2` (stereo not drawn) [A-21], the activity at 1.56 µg/mL was 131%, the activity at 3.13 µg/mL was 122%, the activity at 6.25 µg/mL worked out at 89% and the activity at 12.5 µg/mL stood at 44%.

`COc1c(CCC(C)C)c(O)cc2c1CC(c1ccc(O)c(CCC(C)C)c1OC(C)C)CO2` (stereo not drawn) [A-22]: the activity at 1.56 µg/mL is 186%, the activity at 3.13 µg/mL came out at 176%, the activity at 6.25 µg/mL was determined as 40% and the activity at 12.5 µg/mL came out at 50%.

`COc1cc(OC)c2c(c1)OCC(c1ccc(OCc3ccccc3)cc1OCc1ccccc1)C2` (stereo not drawn) [B-1]: the activity at 0.39 µg/mL was 114%, the activity at 0.78 µg/mL was 116%, the activity at 1.56 µg/mL was 136% and the activity at 3.13 µg/mL worked out at 157%. Also, the activity at 6.25 µg/mL was 188% and the activity at 12.5 µg/mL was 178%.

For the compound `COc1cc(OC)c2c(c1)OCC(c1ccc(O)cc1O)C2` (stereo not drawn) [B-2], the activity at 0.39 µg/mL stood at 106%, the activity at 0.78 µg/mL came to 116%, the activity at 1.56 µg/mL stood at 110% and the activity at 3.13 µg/mL worked out at 146%. Moreover, the activity at 6.25 µg/mL is 293% and the activity at 12.5 µg/mL was 100%.

With `COc1cc(OC)c2c(c1)OCC(c1ccc(OCC=C(C)C)cc1OCC=C(C)C)C2` (stereo not drawn) [B-3], the activity at 0.39 µg/mL worked out at 114%, the activity at 0.78 µg/mL stood at 111%, the activity at 1.56 µg/mL came out at 110% and the activity at 3.13 µg/mL is 162%. Also, the activity at 6.25 µg/mL was found to be 183% and the activity at 12.5 µg/mL was determined as 204%.

For the compound `COc1cc(OC)c2c(c1)OCC(c1ccc(O)c(CC=C(C)C)c1O)C2` (stereo not drawn) [B-4], the activity at 0.39 µg/mL came to 110%, the activity at 0.78 µg/mL was determined as 115%, the activity at 1.56 µg/mL was determined as 125% and the activity at 3.13 µg/mL was determined as 176%. Further, the activity at 6.25 µg/mL is 258% and the activity at 12.5 µg/mL worked out at 44%.

As to `COc1cc(OC)c2c(c1)OCC(c1ccc(O)cc1OCC=C(C)C)C2` (stereo not drawn) [B-5], the activity at 0.39 µg/mL was determined as 100%, the activity at 0.78 µg/mL turned out to be 115%, the activity at 1.56 µg/mL was 165% and the activity at 3.13 µg/mL is 245%. Also, the activity at 6.25 µg/mL was 205% and the activity at 12.5 µg/mL turned out to be 31%.

Regarding `COc1cc(OC)c2c(c1)OCC(c1ccc(O[Si](C)(C)C(C)(C)C)cc1O[Si](C)(C)C(C)(C)C)C2` (stereo not drawn) [B-6], the activity at 0.39 µg/mL was 100%, the activity at 0.78 µg/mL was found to be 103%, the activity at 1.56 µg/mL came out at 120% and the activity at 3.13 µg/mL amounted to 144%. The activity at 6.25 µg/mL amounted to 173% and the activity at 12.5 µg/mL amounted to 156%.

Regarding `COc1cc(O)c2c(c1)OCC(c1ccc(OCc3ccccc3)cc1OCc1ccccc1)C2` (stereo not drawn) [B-7], the activity at 0.39 µg/mL worked out at 99%, the activity at 0.78 µg/mL was determined as 100%, the activity at 1.56 µg/mL came to 125% and the activity at 3.13 µg/mL amounted to 141%. For the same compound, the activity at 6.25 µg/mL came to 132% and the activity at 12.5 µg/mL came out at 67%.

With `COc1ccc(C2COc3cc(OC)cc(OC)c3C2)c(OC)c1` (stereo not drawn) [B-8], the activity at 0.39 µg/mL was found to be 94%, the activity at 0.78 µg/mL amounted to 91%, the activity at 1.56 µg/mL is 90% and the activity at 3.13 µg/mL worked out at 90%. For the same compound, the activity at 6.25 µg/mL is 118% and the activity at 12.5 µg/mL is 83%.

On to `COc1cc2c(c(OC)c1CC=C(C)C)CC(c1ccc(O)cc1O)CO2` (stereo not drawn) [B-9], for which the activity at 0.39 µg/mL came to 110%, the activity at 0.78 µg/mL came out at 133%, the activity at 1.56 µg/mL came to 150% and the activity at 3.13 µg/mL amounted to 165%. In addition, the activity at 6.25 µg/mL turned out to be 110% and the activity at 12.5 µg/mL is 25%.

With `COc1cc2c(c(OC)c1C=CC(C)C)CC(c1ccc(O)cc1O)CO2` (stereo not drawn) [B-10], the activity at 0.39 µg/mL is 118%, the activity at 0.78 µg/mL came out at 145%, the activity at 1.56 µg/mL was 204% and the activity at 3.13 µg/mL turned out to be 119%. Also, the activity at 6.25 µg/mL amounted to 45% and the activity at 12.5 µg/mL was determined as 23%.

For `COc1cc2c(c(OC)c1CCC(C)C)CC(c1ccc(O)cc1O)CO2` (stereo not drawn) [B-11], the activity at 0.39 µg/mL came out at 102%, the activity at 0.78 µg/mL came to 129%, the activity at 1.56 µg/mL turned out to be 125% and the activity at 3.13 µg/mL was found to be 139%. Besides, the activity at 6.25 µg/mL is 88% and the activity at 12.5 µg/mL is 32%.

Turning to `COc1cc2c(c(OC)c1CC=C(C)C)CC(c1ccc(O[Si](C)(C)C(C)(C)C)cc1O[Si](C)(C)C(C)(C)C)CO2` (stereo not drawn) [B-12], the activity at 1.56 µg/mL came out at 122%, the activity at 3.13 µg/mL was 122%, the activity at 6.25 µg/mL was 129% and the activity at 12.5 µg/mL turned out to be 136%.

Take `COc1cc2c(c(OC)c1CC=C(C)C)CC(c1ccc(OCc3ccccc3)cc1OCc1ccccc1)CO2` (stereo not drawn) [B-13]: the activity at 1.56 µg/mL was 121%, the activity at 3.13 µg/mL was found to be 145%, the activity at 6.25 µg/mL stood at 152% and the activity at 12.5 µg/mL was found to be 162%.
